Read-outs that look alike come from different tables or passages of the source.
How the values were obtained:
[1] = tested on: Notch-dependent expression of ATOH1 in LS174T cells; assay: ATOH1 expression induction in LS174T cell line by GSIs (RT-PCR); type: cell-based, human; settings: GSI treatment 72 h, fold-change vs 0.05% DMSO, read-out: IC50 for ATOH1 expression upregulation
Procedure: The human colon cancer cell line LS174T (CL-188; ATCC) was cultured without antibiotics in 1% FBS/Eagle’s Minimum Essential Medium (MEM; Thermo Fisher) ([Asakura et al., 2018]). […]
Cells or tissue were lysed using RLT Lysis Buffer (Qiagen) and high purity RNA was prepared on the MagNA Pure instrument using MagNA Pure 96 Cellular RNA LV Kit (Roche). Reagents from Thermo Fisher were used for cDNA synthesis by reverse transcription using random hexamers. Resulting cDNA was RNAse H treated and amplified by TaqMan GEX mastermix and PCR primers and probes for human ATOH1 (Hs00944192_s1) and TBP (Hs00427620_m1), mouse Tbp (Mm00446971_m1), Atoh1 (Mm00476035_s1), Hes5 (Mm00439311_g1), Pouf4s (Mm04213795_s1), and Myo7a (Mm01274015_m1) on the Applied Biosystems QuantStudio 7 Flex Real-Time PCR System. Normalized to Tbp, relative gene expression fold-change was quantified and compared between experimental and control conditions by ΔΔCt calculation.
Statistical analysis was performed with GraphPad Prism software (Prism9; GraphPad Software Inc., San Diego, CA, United States). For explant cultures, when the number of explants/replicates was not sufficient to test for Gaussian distribution normal distribution of the data was assumed based on previous experiments ([Perny et al., 2017]; [Erni et al., 2019]). Alternatively, the distribution of the datasets was tested by D’Agostino and Pearson normality test. Unpaired t-tests were used to compare parametric data sets of two groups. Welch’s correction was applied if variances were not equal. For non-parametric data, the Mann–Whitney test was adopted. One-way ANOVA was used to determine the difference in means among multiple groups and multiple comparison correction was tested. Graphs indicate the single data point, the mean values ± standard deviation. IC50s were calculated by non-linear regression of data normalized by percent change from controls to compare multiple experiments. Differences in IC50s from Best fit data were compared by Least Squares (F-test; Extra sum of squares; alpha = 0.05).
To measure the relative potency between different GSIs, a pharmacological assay was initially used to identify the dose ranges effective to induce ATOH1 expression. The cell line LS174T, a human colorectal adenocarcinoma, was used to evaluate Notch-dependent expression of ATOH1 ([Kazanjian et al., 2010]). Two compounds from Eli Lilly, designated LY3056480 (CPD3) and LY3056359 (CPD8) (Figures 1A,B) were compared with the commercially available GSIs LY411575 and DAPT. […] The intermediate potency of CPD3 and 8 was likely to be adequate to achieve levels above the IC50 after dilution into perilymph in the inner ear.

[2] = tested on: Myo7a+ hair cells in rat cochlear organoids; assay: Rat cochlear organoids, hair cell differentiation; type: cell-based; settings: for Total hair cells per organoid prior to normalization: end of differentiation, GSI 5 μM
Procedure: On day 0, the cochlear sensory epithelium was dissected and the OC was separated from the modiolus and stria vascularis, as described above, from either Wistar rat pups (P2), Lgr5-GFP mice (P0–P2) or Atoh1-GFP mice (P0–P2). To separate the sensory epithelial layer from underlying mesenchyme and neurons, the OC was placed in a 100 μl drop of Matrisperse Cell Recovery Solution (Corning) for 1 h at RT, then delaminated with the aid of forceps. Gentle enzymatic dissociation of hair cells and supporting cells followed with 100 μl drop of TrypLE (Gibco), 20 min at 37°C, then mechanical trituration in DMEM/F12. The cell suspension was centrifuged for 5 min at 500 g at 4°C and resuspended in DMEM/F12 medium supplemented with B27 and N2 (Invitrogen), EGF (50 ng/ml), bFGF (50 ng/ml), IGF (25 ng/ml), CHIR99021 (GSK-3β inhibitor, 3 μM, Merck), valproic acid (HDAC inhibitor, 1 mM, Sigma), 2-phospho-L-ascorbic acid (280 μM, Stemcell Technologies) and 0.01% ampicillin (Sigma). Cells were plated at 2,000 cells per well on 96 wells plate (Corning Costar; ultra-low attachment, round-bottom) to allow aggregation at 37°C. On day 1, Matrigel (GF-depleted, Corning; 2% stock) was added to a final concentration of 0.18 mg/ml. On day 3, cells were transferred to 24 wells plate (ultra-low attachment; Corning Costar), pooling the organoid aggregates from 4 to 5 wells (96 well-plate) to one 24-well, culturing at 37°C and exchanging half medium and Matrigel every other day, On day 10, organoids were differentiated by replacing medium with DMEM/F12 supplemented with B27, N2, CHIR99021 (3 μM), and Notch inhibitors CPD3 (5 μM) or LY411575 (5 μM), and culture was continued as above for another 10 days.
For staining and imaging, organoids were allowed to adhere ON onto transwell-permeable support membranes (Corning) in 12-well plates coated with 100% Matrigel. […] Compiled Z-projections were processed (FIJI, ver2.0) and hair cells quantified on individual planes with manual cell counter plugin, by evaluation of cytosolic expression and nuclear exclusion of Myo7a. […]

IC50 ([1]; Homo sapiens) [nM]	IC50 [1] [nM]	Compound	Hair cell numbers during differentiation ([2]; diff D20 vs exp D10, p < 0.05)	Total hair cells per organoid prior to normalization [2]
17.3	–	COc1ccc2c(c1)N1CCC(C)(C)C1=CC(=O)[C@H]2NC(=O)[C@H](C)NC(=O)CCC(F)(F)F [CPD3]	significantly increased	22.8 ± 18.0
–	0.4	C[C@H](NC(=O)[C@@H](O)c1cc(F)cc(F)c1)C(=O)N[C@@H]1C(=O)N(C)c2ccccc2-c2ccccc21 [LY411575]	–	17.17 ± 20.9

— publication PMC8414802, “Hair Cell Generation in Cochlear Culture Models Mediated by Novel γ-Secretase Inhibitors” (Frontiers in Cell and Developmental Biology, 2021)
